Data reported in US20030108872A1, “Genomics-assisted rapid identification of targets” (priority 2000, published 2003).

Experiments:
[1] = system: cells with the mutated murA gene (single or multiple copies); experiment: Growth on MHB plates with phosphomycin, mutated murA; format: cell-based, E. coli
Method: (§1) E. coli mutants resistant to phosphomycin were obtained by plating E. coli MC1061 cells in the presence of 5 μg/ml phosphomycin (about 5×MIC), in MHB. Colonies of these resistant mutants were picked and repatched on MHB plates supplemented with 5 μg/ml. […] To determine whether the phenotype of phosphomycin resistance is due to these changes in the murA gene, primers murA-F1 and murA-R1 were used to amplify up a region consisting of 1 kb upstream of the murA gene and 1 kb downstream of the murA gene using as template, DNA extracted from MC1061 and from the phosphomycin-resistant murA mutants. The 3.5 kb PCR amplification fragments were cloned into a high copy vector, and 3 independent clones were picked for each type. The clones, carrying multi-copy plasmids with either wild-type murA or mutated mura, were streaked onto MHB plates and on MHB supplemented with 5, 25, and 50 ,μg/ml phosphomycin. The wild-type MC1061 strain (carrying a single copy of the wild-type murA gene) and the original mutants resistant to phosphomycin were used as controls. All strains grew on MHB plates without phosphomycin. On MHB plates with 5 μg/ml phosphomycin, there was slight growth for strains carrying the wild-type murA gene, whether present in single copy or multiple copies, whereas there was robust growth for cells with the mutated murA gene, whether present in single or multiple copies. On MHB plates with 25 μg/ml phosphomycin, there was no growth for strains carrying the wild-type mura gene, whether present in single copy or multiple copies, but there was robust growth for cells carrying single or multiple copies of the mutated murA gene. On MHB plates with 50 μg/ml phosphomycin, there was no growth for strains carrying wild-type murA (whether present in single copy or multiple copies) but slight growth for strains carrying the mutated murA gene whether present in single or multiple copies. Clearly, the mutants isolated because of their phenotype of resistance to phosphomycin carry mutant mura genes which can confer resistance when transferred to other cells by transformation. […]

[2] = system: B. subtilis NO-347 (BD170 thrC::Pspac-murA kanR ΔmurA::CmR); experiment: MIC by microbroth dilution in B. subtilis under-expressing murA; format: cell-based; conditions: IPTG 0-0.1 mM, compared to the control strain, FIG. 10
Method: Materials and Methods. The materials are the same as discussed above. Plasmids are listed in Table 4 B. subtilis strains were routinely grown in LB media or on LB agar plates containing 1.5% agar (Sambrook et al., MOLECULAR CLONING: A LABORATORY MANUAL, 2nd ed., Cold Spring Harbor Laboratory Press, 1989). MIC determination is performed using microbroth dilution-cultures grown in Mueller Hinton broth in 96-well microtiter plates purchased from Nunc (Plates—Cat. No. 262162; Lids—Cat. No. 264122). When required, media were supplemented with 5 μg/ml chloramphenicol or 10 μg/ml kanamycin. IPTG was added to culture media at a final concentration of 0.05 mM for routine culture growth of B. subtilis NO-347 (BDI70 thrC::Pspac-murA kan^R ΔmurA::Cm^R), which is dependent on IPTG for growth.
The endogenous murA gene in NO-360 was deleted by allelic replacement as follows (see FIG. 9). DNA fragments flanking the 5′ and 3′ ends of the murA gene were amplified from B. subtilis 168 genomic DNA using primer pairs KO mura F1+R2 and KO murA F2+R1, respectively. The 5′ and 3′ flanking fragments were linked to the Cm^R gene from pEVP3 using the cross-over PCR technique with the primer pair KO mura F1+R1. The resulting PCR product (shown in FIG. 9B) was used to transform naturally competent B. subtilis NO-360. Cm^R clones were selected in the presence of 0.01 mM and 0.05 mM IPTG. Allelic replacement of murA in Cm^R clones was verified by PCR. Strain NO-347 (BD170 thrC::Pspac-murA Kan^R ΔmurA::Cm^R) was chosen for MIC determinations for phosphomycin in presence of various concentrations of the regulator IPTG.
MIC determinations. Determination of minimum inhibitory concentration (MIC) for phosphomycin, novobiocin, erythromycin and trimethoprim lactate were performed in 96-well microliter plates using the microbroth dilution technique as described in NCCLS. 1997. Methods for dilution antimicrobial susceptibility tests for bacteria that grow aerobically-fourth edition; approved standard. NCCLS document M7-A4. NCCLS, Wayne, Pa. For MIC determinations using strain NO-347, various concentrations (0-0.1 mM) were added to the media. Growth was quantitated by OD600 measurements using a SpectroMax 250 plate reader (Molecular Devices).

[3] = system: strains carrying the wild-type murA gene (single copy or multiple copies); experiment: Growth on MHB plates with phosphomycin, wild-type murA; format: cell-based, E. coli
Method: as §1

[4] = system: E. coli MC1061, Ec211, Ec261, Ec239, Ec238; experiment: Transformation selection: growth on drug plates of strains over-expressing folA or murA; format: cell-based; conditions: for growth on MHB plates supplemented with drug: 5 μg/ml trimethoprim or 25 μg/ml phosphomycin, no L-arabinose, all strains, FIG. 15
Description: Methods. The genes folA, and murA were amplified from the genomic DNA of E. coli. Each gene was independently cloned in frame into pBAD/Myc-HisB vector, such that expression of the gene is under the regulation of the promoter PBAD. Hexahistidine encoding tags were incorporated into the 3′ end of the gene encoding the C-terminus of the protein through primer design. The construct introduced into the host cells of E. coli MC1061, resulting in Ec211 (construct with folA) and Ec261 (construct with murA).
The entire vector region (araC, PBAD, folA or murA, ampicillin resistance gene) of the above two constructs, but minus the origin, was PCR amplified through primer pairs homologous to regions flanking the origin. The PCR products were then linked at their 5′ ends to the 1 kb region upstream of yibD locus, and linked at their 3′ ends to the 1 kb region downstream of E. coli yibD locus (in effect, replacing yibD) by “crossover PCR” (Kim et al., 1996 Biotechniques 20: 954-5). The linear DNA product was gel purified and introduced into competent and recombinogenic MC1061. Recombinogenic ability was supplied by the red/gam function of plasmid pTP223.
Ec211, […], Ec238, Ec239, and MC1061 were freshly streaked onto Mueller Hinton Broth (MHB) plates. After an overnight incubation at 37° C., they were streaked into different segments onto different selection plates in the order of MHB supplemented with 5 μg/ml trimethoprim, MHB supplemented with 5 μg/ml trimethoprim and 0.1% L-arabinose, MHB supplemented with 25 μg/ml phosphomycin, MHB supplemented with 25 μg/ml phosphomycin and 0.1% L-arabinose, MHB supplemented with 0.1% L-arabinose, and finally plain MHB plates. The plates are 10 cm circular plates filled with 30 ml of media and divided into 6 equal segments. MC1061 was streaked in the first segment, Ec211 in second, Ec261 in third, Ec239 in fourth, Ec238 in fifth and the sixth segment was left blank.

C[C@@H]1O[C@@H]1P(=O)(O)O [phosphomycin]
growth on MHB plates ([1]; 5 μg/ml phosphomycin): robust growth
growth on MHB plates ([1]; 25 μg/ml phosphomycin): robust growth
growth on MHB plates ([1]; 50 μg/ml phosphomycin): slight growth
sensitivity (MIC) on regulated under-expression of murA [2]: increased sensitivity
growth on MHB plates ([3]; 5 μg/ml phosphomycin): slight growth
growth on MHB plates ([3]; 25 μg/ml phosphomycin): no growth
growth on MHB plates ([3]; 50 μg/ml phosphomycin): no growth
growth on MHB plates supplemented with drug [4]: Nothing grew
growth on MHB plates with drug and L-arabinose (over-expression rescue) ([4]; 25 μg/ml phosphomycin and 0.1% L-arabinose, Ec261 (multiple copies of murA) and Ec238 (two copies of murA)): grew up

COc1cc(Cc2cnc(N)nc2N)cc(OC)c1OC [trimethoprim]
sensitivity (MIC) on regulated under-expression of murA [2]: does not affect sensitivity
growth on MHB plates with drug and L-arabinose (over-expression rescue) ([4]; 5 μg/ml trimethoprim and 0.1% L-arabinose, Ec211 (multiple copies of folA, PBAD)): the only strain that grew up
growth on MHB plates supplemented with drug [4]: Nothing grew
